biological target: T1, human Nav1.8 (hNav1.8) ion channel (Homo sapiens, UniProt Q9Y5Y9); test: Nav1.8 inhibition, estimated IC50 (Nav1.8 fluorescence, PatchXpress and/or IonFlux HT automated patch clamp assay); assay type: cell-based; details: HEK293 cells stably expressing hNav1.8; determined using one or more of the described methods; read-out: Activity range (estimated IC50)
T1 construct: expressed in transfected cells
Protocol: The ability of pyridine carboxamide derivatives exemplified above to inhibit the Nav1.8 channel was determined using one or more of the methods described below.
HEK Nav1.8 β1/β2 Stably Expressing Cell Line
A HEK293 cell line stably expressing the human Nav1.8 (hNav1.8) ion channel with β1/β2 subunits was constructed. The cell line is suitable for IC50 determination in fluorescence and electrophysiological based assays. It is also suitable to conduct mechanism of action pharmacology studies in electrophysiological assays. HEK293 Nav1.8 cells are grown as adherent monolayers in DMEM/high glucose media, 10% fetal bovine serum, Na pyruvate (2 mM), Hepes (10 mM) with selection agents G418 (400 mg/L) and puromycin (0.5 mg/L) at 37 degrees C., 10% CO2.
Nav1.8 Fluorescence Inhibition Assay
Compounds were made up to or supplied as a 10-mM stock solution using DMSO as the vehicle. Concentration-response curves were generated using a Matrix multichannel pipettor. Compound source plates were made by diluting 10 mM compound stocks to create 500 μM (100×) solutions in DMSO in 96-well v-bottom plates. Compounds were then serially diluted in 100% DMSO to generate a 5 point, 4-fold dilution scheme dose response curve. 2 μL of the 100× dose response curves were then added to preincubation and stimulation assay plates. 100 μL of pre-incubation buffer and 200 μl of stimulation buffer was then added to the plates resulting in a final assay test concentration range of 5 μM to 0.02 μM with a final DMSO concentration of 1%.
On the day of assay, plates were washed to remove cell culture media using 2K EBSS buffer (135 mM NaCl, 2 mM KCl, 5 mM Glucose, 2 mM CaCl2, 1 mM MgCl2, 10 mM HEPES, pH 7.4). The Na-sensitive fluorescent dye, Asante Natrium Green-2 (ANG-2) was incubated for 60 min to allow equilibration and then washed with 2K EBSS. Plates were then transferred to a fluorescence plate reader (FLIPR™, Molecular Devices) for fluorescence measurement using an excitation wavelength of 490 nm and an emission wavelength of 565 nm. Compounds were pre-incubated for 5 min at final test concentration in the presence of ouabain (30 μM) to inhibit Na+ efflux through Na+/K+ exchanger. Following the pre-incubation phase, hNav1.8 channels were stimulated with 10 μM of the pyrethroid deltamethrin to prevent channel inactivation. The assay was run for 15 minutes with vehicle and 30 μM tetracaine serving as negative and positive controls, respectively. The peak change in fluorescence relative to negative and positive control wells was calculated and fit with a logistic equation to determine IC50.
PatchXpress Nav1.8 Inhibition Assay
HEK-Nav1.8 β1/β2 cells were recorded in whole cell patch-clamp using the PatchXpress automated patch clamp platforms (Molecular Devices). Cell suspensions were obtained by trypsinization of adherent monolayers, followed by gentle rocking for minimally 30 min. Compounds were prepared from 10 mM DMSO stocks.
Nav1.8 channel variants were evaluated using Protocol 1 in which cells were initially voltage clamped at a holding potential of −100 mV to maintain Nav1.8 in a closed resting state. After current amplitude becomes stable, the mid-point voltage of steady state inactivation was determined for each cell using a series of 5 sec conditioning steps to increasingly depolarized voltages (−100 to 0 mV) The holding potential was then reset to a voltage that produces ˜50% inactivation (Vhalf-set automatically via PatchXpress scripts) so that closed and inactivated channel inhibition could be assessed. Protocol 1 was run at a frequency of 0.1 Hz until current amplitude is steady (automatically determined by PatchXpress scripts). The effect of test reagent on Nav current amplitude was monitored using custom PatchXpress stability scripts which determines the timing of compound addition and washout.
Data were processed and analyzed using DataXpress 2.0 (Molecular Devices). […]

T1 sequence (Q9Y5Y9 whole entry): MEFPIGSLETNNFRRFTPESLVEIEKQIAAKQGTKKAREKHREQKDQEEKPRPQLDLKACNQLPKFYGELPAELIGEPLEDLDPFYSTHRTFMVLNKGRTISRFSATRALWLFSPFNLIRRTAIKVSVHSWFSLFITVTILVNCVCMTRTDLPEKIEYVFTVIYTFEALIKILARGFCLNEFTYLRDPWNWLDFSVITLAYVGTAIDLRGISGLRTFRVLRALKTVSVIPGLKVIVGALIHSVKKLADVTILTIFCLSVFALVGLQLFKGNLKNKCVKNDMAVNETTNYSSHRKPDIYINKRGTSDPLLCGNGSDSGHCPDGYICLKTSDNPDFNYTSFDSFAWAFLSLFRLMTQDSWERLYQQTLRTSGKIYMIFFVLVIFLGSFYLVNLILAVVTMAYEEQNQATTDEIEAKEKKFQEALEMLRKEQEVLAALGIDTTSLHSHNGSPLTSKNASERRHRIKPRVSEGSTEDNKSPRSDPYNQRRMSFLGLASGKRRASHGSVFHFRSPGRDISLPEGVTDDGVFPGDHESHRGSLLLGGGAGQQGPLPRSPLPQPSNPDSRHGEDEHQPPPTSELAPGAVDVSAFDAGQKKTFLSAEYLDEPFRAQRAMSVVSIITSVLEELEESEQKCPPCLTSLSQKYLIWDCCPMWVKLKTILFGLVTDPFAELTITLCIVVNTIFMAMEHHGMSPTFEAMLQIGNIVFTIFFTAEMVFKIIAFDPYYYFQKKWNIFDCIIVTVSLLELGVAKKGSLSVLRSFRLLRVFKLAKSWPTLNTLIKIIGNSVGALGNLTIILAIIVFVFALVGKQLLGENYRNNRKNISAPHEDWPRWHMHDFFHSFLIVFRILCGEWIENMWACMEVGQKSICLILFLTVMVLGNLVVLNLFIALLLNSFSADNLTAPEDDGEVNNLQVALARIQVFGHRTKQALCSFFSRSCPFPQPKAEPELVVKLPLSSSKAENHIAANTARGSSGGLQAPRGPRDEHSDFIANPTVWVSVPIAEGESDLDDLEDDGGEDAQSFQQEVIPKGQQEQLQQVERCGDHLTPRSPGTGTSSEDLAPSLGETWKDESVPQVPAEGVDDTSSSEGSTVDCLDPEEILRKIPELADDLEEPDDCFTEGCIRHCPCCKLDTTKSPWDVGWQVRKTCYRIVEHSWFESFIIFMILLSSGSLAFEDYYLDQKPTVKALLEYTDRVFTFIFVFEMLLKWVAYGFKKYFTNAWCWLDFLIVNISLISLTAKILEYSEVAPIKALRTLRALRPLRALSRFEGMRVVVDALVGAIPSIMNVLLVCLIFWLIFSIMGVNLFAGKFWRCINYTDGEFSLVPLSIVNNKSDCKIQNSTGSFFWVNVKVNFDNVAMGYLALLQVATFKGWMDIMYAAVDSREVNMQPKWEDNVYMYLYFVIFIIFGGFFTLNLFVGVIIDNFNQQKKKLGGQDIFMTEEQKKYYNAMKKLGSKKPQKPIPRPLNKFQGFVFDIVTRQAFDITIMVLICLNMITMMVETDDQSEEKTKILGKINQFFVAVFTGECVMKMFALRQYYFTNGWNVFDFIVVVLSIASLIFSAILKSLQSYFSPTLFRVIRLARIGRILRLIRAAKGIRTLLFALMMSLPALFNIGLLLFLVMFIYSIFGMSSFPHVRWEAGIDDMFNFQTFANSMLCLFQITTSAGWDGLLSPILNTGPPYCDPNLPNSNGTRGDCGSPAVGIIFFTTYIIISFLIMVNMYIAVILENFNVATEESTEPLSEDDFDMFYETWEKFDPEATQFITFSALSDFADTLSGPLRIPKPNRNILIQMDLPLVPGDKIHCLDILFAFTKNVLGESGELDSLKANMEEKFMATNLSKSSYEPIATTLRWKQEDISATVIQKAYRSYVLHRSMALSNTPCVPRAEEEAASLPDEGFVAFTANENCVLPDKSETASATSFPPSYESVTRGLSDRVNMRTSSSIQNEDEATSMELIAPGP
T1 sequence (Q07699 19-218 partner): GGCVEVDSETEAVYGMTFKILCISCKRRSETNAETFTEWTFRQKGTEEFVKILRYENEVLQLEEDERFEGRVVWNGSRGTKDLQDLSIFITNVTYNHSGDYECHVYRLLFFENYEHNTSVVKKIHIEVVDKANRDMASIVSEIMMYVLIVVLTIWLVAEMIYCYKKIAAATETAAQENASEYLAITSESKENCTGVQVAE

Row | Structure (SMILES) | IC50
1 | CN(C)c1ncccc1CNC(=O)c1cnnc(-c2ccc(OCC3CC3)c(Cl)c2)c1 [Example 28, 6-[3-chloro-4-(cyclopropylmethoxy)phenyl]-N-[[2-(dimethylamino)-3-pyridyl]methyl]pyridazine-4-carboxamide] | < 500 nM
2 | O=C(NCc1cccnc1N1CCCC1)c1cnnc(-c2ccc(OCC3CC3)c(Cl)c2)c1 [Example 29, 6-[3-chloro-4-(cyclopropylmethoxy)phenyl]-N-[(2-pyrrolidin-1-yl-3-pyridyl)methyl]pyridazine-4-carboxamide] | < 500 nM
3 | O=C(NCc1cccnc1N1CCCCC1)c1cnnc(-c2ccc(OCC3CC3)c(Cl)c2)c1 [Example 30, 6-[3-chloro-4-(cyclopropylmethoxy)phenyl]-N-[[2-(1-piperidyl)-3-pyridyl]methyl]pyridazine-4-carboxamide] | < 500 nM
4 | O=C(NCc1cc(F)cnc1N1CCOCC1)c1cnnc(-c2ccc(OCC3CC3)c(Cl)c2)c1 [Example 31, 6-[3-chloro-4-(cyclopropylmethoxy)phenyl]-N-[(5-fluoro-2-morpholino-3-pyridyl)methyl]pyridazine-4-carboxamide] | < 500 nM
5 | O=C(NCc1cncnc1N1CCOCC1)c1cnnc(-c2ccc(OCC3CC3)c(Cl)c2)c1 [Example 32, 6-[3-chloro-4-(cyclopropylmethoxy)phenyl]-N-[(4-morpholinopyrimidin-5-yl)methyl]pyridazine-4-carboxamide] | > 1000 nM
6 | O=C(NCc1nccnc1N1CCOCC1)c1cnnc(-c2ccc(OCC3CC3)c(Cl)c2)c1 [Example 33, 6-[3-chloro-4-(cyclopropylmethoxy)phenyl]-N-[(3-morpholinopyrazin-2-yl)methyl]pyridazine-4-carboxamide] | < 500 nM
7 | O=C(NCc1cccnc1N1C[C@@H]2C[C@H]1CO2)c1cnnc(-c2ccc(OCC3CC3)c(Cl)c2)c1 [Example 34, 6-[3-chloro-4-(cyclopropylmethoxy)phenyl]-N-[[2-[(1S,4S)-2-oxa-5-azabicyclo[2.2.1]heptan-5-yl]-3-pyridyl]methyl]pyridazine-4-carboxamide] | < 500 nM
8 | CS(=O)(=O)c1ccccc1CNC(=O)c1cnnc(-c2ccc(OCC3CC3)c(Cl)c2)c1 [Example 35, 6-[3-chloro-4-(cyclopropylmethoxy)phenyl]-N-[(2-methylsulfonylphenyl)methyl]pyridazine-4-carboxamide] | 500 to 1000 nM
9 | COc1ccccc1CNC(=O)c1cnnc(-c2ccc(OCC3CC3)c(Cl)c2)c1 [Example 36, 6-[3-chloro-4-(cyclopropylmethoxy)phenyl]-N-[(2-methoxyphenyl)methyl]pyridazine-4-carboxamide] | < 500 nM
10 | Cc1ccccc1CNC(=O)c1cnnc(-c2ccc(OCC3CC3)c(Cl)c2)c1 [Example 37, 6-[3-chloro-4-(cyclopropylmethoxy)phenyl]-N-(o-tolylmethyl)pyridazine-4-carboxamide] | < 500 nM
11 | [2H]C1([2H])OC([2H])([2H])C([2H])([2H])N(c2ncccc2CNC(=O)c2cnnc(-c3ccc(OCC4CC4)c(Cl)c3)c2)C1([2H])[2H] [Example 38, 6-[3-chloro-4-(cyclopropylmethoxy)phenyl]-N-[[2-(2,2,3,3,5,5,6,6-octadeuteriomorpholin-4-yl)-3-pyridyl]methyl]pyridazine-4-carboxamide] | < 500 nM
12 | O=C(NCc1cccnc1N1CCOC(C(F)(F)F)C1)c1cnnc(-c2ccc(OCC3CC3)c(Cl)c2)c1 (stereo not drawn) [Example 39, 6-[3-chloro-4-(cyclopropylmethoxy)phenyl]-N-[[2-[2-(trifluoromethyl)morpholin-4-yl]-3-pyridyl]methyl]pyridazine-4-carboxamide] | 500 to 1000 nM
13 | O=C(NCc1cncc(F)c1)c1cnnc(-c2ccc(OCC3CC3)c(Cl)c2)c1 [Example 40, 6-[3-chloro-4-(cyclopropylmethoxy)phenyl]-N-[(5-fluoro-3-pyridyl)methyl]pyridazine-4-carboxamide] | < 500 nM
14 | CCC1CN(c2ncccc2CNC(=O)c2cnnc(-c3ccc(OCC4CC4)c(Cl)c3)c2)CCO1 (stereo not drawn) [Example 41, 6-[3-chloro-4-(cyclopropylmethoxy)phenyl]-N-[[2-(2-ethylmorpholin-4-yl)-3-pyridyl]methyl]pyridazine-4-carboxamide] | < 500 nM
15 | CC(C)Oc1ncccc1CNC(=O)c1cnnc(-c2ccc(OCC3CC3)c(Cl)c2)c1 [Example 42, 6-[3-chloro-4-(cyclopropylmethoxy)phenyl]-N-[(2-isopropoxy-3-pyridyl)methyl]pyridazine-4-carboxamide] | < 500 nM
16 | COc1ncccc1C(C)NC(=O)c1cnnc(-c2ccc(OCC3CC3)c(Cl)c2)c1 (stereo not drawn) [Example 43, 6-(3-chloro-4-(cyclopropylmethoxy)phenyl)-N-(1-(2-methoxypyridin-3-yl)ethyl)pyridazine-4-carboxamide] | 500 to 1000 nM
17 | O=C(NCc1cccnc1N1CCOCC1)c1cnnc(-c2ccc(OCC3CCC3)c(Cl)c2)c1 [Example 44, 6-[3-chloro-4-(cyclobutylmethoxy)phenyl]-N-[(2-morpholino-3-pyridyl)methyl]pyridazine-4-carboxamide] | < 500 nM
18 | CC(Oc1ccc(-c2cc(C(=O)NCc3cccnc3N3CCOCC3)cnn2)cc1Cl)C1CC1 (stereo not drawn) [Example 45, 6-[3-chloro-4-(1-cyclopropylethoxy)phenyl]-N-[(2-morpholino-3-pyridyl)methyl]pyridazine-4-carboxamide] | < 500 nM
19 | O=C(NCc1cccnc1N1CCOCC1)c1cnnc(-c2ccc(OCC3CC3)c(F)c2)c1 [Example 46, 6-[4-(cyclopropylmethoxy)-3-fluoro-phenyl]-N-[(2-morpholino-3-pyridyl)methyl]pyridazine-4-carboxamide] | < 500 nM
20 | O=C(NCc1cccnc1N1CCOCC1)c1cnnc(-c2ccc(OCC3CC3)c(C(F)(F)F)c2)c1 [Example 47, 6-[4-(cyclopropylmethoxy)-3-(trifluoromethyl)phenyl]-N-[(2-morpholino-3-pyridyl)methyl]pyridazine-4-carboxamide] | < 500 nM
21 | COc1ncccc1CNC(=O)c1cnnc(-c2ccc(OCC3CC3)cc2)c1 [Example 48, 6-[4-(cyclopropylmethoxy)phenyl]-N-[(2-methoxy-3-pyridyl)methyl]pyridazine-4-carboxamide] | > 1000 nM
22 | O=C(NCc1cc(F)cnc1N1CCOCC1)c1cnnc(-c2ccc(OCC3CC3)cc2)c1 [Example 49, 6-[4-(cyclopropylmethoxy)phenyl]-N-[(5-fluoro-2-morpholino-3-pyridyl)methyl]pyridazine-4-carboxamide] | > 1000 nM
23 | CC1COCCN1c1ncccc1CNC(=O)c1cnnc(-c2ccc(OCC3CC3)cc2)c1 (stereo not drawn) [Example 50, 6-[4-(cyclopropylmethoxy)phenyl]-N-[[2-(3-methylmorpholin-4-yl)-3-pyridyl]methyl]pyridazine-4-carboxamide] | > 1000 nM
24 | O=C(NCc1cccnc1N1CC2(COC2)C1)c1cnnc(-c2ccc(OCC3CC3)cc2)c1 [Example 52, 6-[4-(cyclopropylmethoxy)phenyl]-N-[[2-(2-oxa-6-azaspiro[3.3]heptan-6-yl)-3-pyridyl]methyl]pyridazine-4-carboxamide] | > 1000 nM
25 | N#Cc1ccc(-c2cc(C(=O)NCc3cc(F)cnc3N3CCOCC3)cnn2)cc1 [Example 53, 6-(4-cyanophenyl)-N-[(5-fluoro-2-morpholino-3-pyridyl)methyl]pyridazine-4-carboxamide] | 500 to 1000 nM
26 | O=C(NCc1ccccc1N1CCOCC1)c1cnnc(-c2ccc(Cl)cc2)c1 [Example 55, 6-(4-chlorophenyl)-N-[(2-morpholinophenyl)methyl]pyridazine-4-carboxamide] | < 500 nM
27 | O=C(NCc1ccccc1N1CCOCC1)c1cnnc(-c2ccc(OC(F)(F)F)cc2)c1 [Example 57, 6-[4-(trifluoromethoxy)phenyl]-N-[(2-morpholinophenyl)methyl]pyridazine-4-carboxamide] | < 500 nM
